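In this assay, cells in 96-well plates receive the compound at five concentrations for 48 hours. Endpoints are linearly interpolated between the surrounding concentrations. At the GI50, growth is halved.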 Activity calls are given as the source filed them. No stated cut-off is given here; in the data, active = GI50 up to about 1.1 µM and inactive = higher.
What was measured:
Experiment in all cases: inhibition of tumour cell growth, NCI panel, 48 h
ACHN = test system: ACHN
CAKI-1 = test system: CAKI-1
DLD-1 = test system: DLD-1
DMS-273 = test system: DMS-273
K562 = test system: K562
KM-20L2 = test system: KM-20L2
LXFL 529 = test system: LXFL 529
MOLT-4 = test system: MOLT-4
OVCAR-8 = test system: OVCAR-8
RPMI-8226 = test system: RPMI-8226
SF-539 = test system: SF-539
SK-OV-3 = test system: SK-OV-3
M19-MEL = test system: M19-MEL
NCI/ADR-RES = test system: NCI/ADR-RES
OVCAR-3 = test system: OVCAR-3
DU-145 = test system: DU-145
MDA-MB-231 = test system: MDA-MB-231
MDA-N = test system: MDA-N
SR = test system: SR
T47D = test system: T47D

Structure (SMILES) | GI50 (ACHN) | GI50 (CAKI-1) | GI50 (DLD-1) | GI50 (DMS-273) | GI50 (K562) | GI50 (KM-20L2) | GI50 (LXFL 529) | GI50 (MOLT-4) | GI50 (OVCAR-8) | GI50 (RPMI-8226) | GI50 (SF-539) | GI50 (SK-OV-3) | GI50 (M19-MEL) | GI50 (NCI/ADR-RES) | GI50 (OVCAR-3) | GI50 (DU-145) | GI50 (MDA-MB-231) | GI50 (MDA-N) | GI50 (SR) | GI50 (T47D)
O=C(NO)c1coc2ccccc2c1=O | 23.7 µM (inactive) | 8.26 µM (inactive) | > 100 µM (inactive) | > 100 µM (inactive) | > 100 µM (inactive) | > 100 µM (inactive) | > 100 µM (inactive) | > 100 µM (inactive) | > 100 µM (inactive) | > 100 µM (inactive) | 78.5 µM (inactive) | 12.3 µM (inactive) | – | – | – | – | – | – | – | –
COCCOCOc1ccc(OCc2ccccc2)cc1 | – | 2.25 µM (inactive) | > 100 µM (inactive) | > 94.6 µM (inactive) | 64.9 µM (inactive) | > 100 µM (inactive) | – | 34 µM (inactive) | > 100 µM (inactive) | > 49.5 µM (inactive) | > 100 µM (inactive) | > 100 µM (inactive) | > 63.4 µM (inactive) | > 82.8 µM (inactive) | > 100 µM (inactive) | – | – | – | – | –
Cc1ccccc1-c1nc2c(C(=O)NCCN(C)C)cccc2[nH]1 | – | 47.6 µM (inactive) | 37.7 µM (inactive) | 31.5 µM (inactive) | 20.9 µM (inactive) | 25.6 µM (inactive) | – | 27 µM (inactive) | 42.8 µM (inactive) | 27.7 µM (inactive) | 41.4 µM (inactive) | 46.5 µM (inactive) | – | 34.3 µM (inactive) | 65.6 µM (inactive) | – | – | – | – | –
NC(=O)Oc1ccccc1 [CARBAMIC ACID PHENYL ESTER] | > 100 µM (inactive) | – | – | – | > 100 µM (inactive) | – | – | > 100 µM (inactive) | > 100 µM (inactive) | – | – | > 100 µM (inactive) | – | > 100 µM (inactive) | > 100 µM (inactive) | > 100 µM (inactive) | > 100 µM (inactive) | > 100 µM (inactive) | > 100 µM (inactive) | > 100 µM (inactive)
CSc1nc(N)c2c(-c3ccccc3)c3c(nc2n1)CCCC3 | > 100 µM (inactive) | > 100 µM (inactive) | – | – | > 100 µM (inactive) | – | – | > 100 µM (inactive) | 20.8 µM (inactive) | > 100 µM (inactive) | 13.4 µM (inactive) | 87.7 µM (inactive) | – | 33 µM (inactive) | > 100 µM (inactive) | > 100 µM (inactive) | > 100 µM (inactive) | > 100 µM (inactive) | > 100 µM (inactive) | > 100 µM (inactive)
Cc1cc(NS(=O)(=O)c2ccc(NC(=O)c3cccc4c(Nc5ccc(S(N)(=O)=O)cc5)c5ccccc5nc34)cc2)no1 | > 100 µM (inactive) | – | > 100 µM (inactive) | – | 98.2 µM (inactive) | – | > 100 µM (inactive) | > 100 µM (inactive) | – | 87.9 µM (inactive) | 73.6 µM (inactive) | > 100 µM (inactive) | > 100 µM (inactive) | – | 76.2 µM (inactive) | – | – | – | 80.9 µM (inactive) | –
CN(C)c1nc(N(C)C)nc(N(C)CN(C)c2ccccc2)n1 | > 100 µM (inactive) | – | – | – | > 100 µM (inactive) | – | > 100 µM (inactive) | > 100 µM (inactive) | > 100 µM (inactive) | – | > 100 µM (inactive) | > 100 µM (inactive) | > 100 µM (inactive) | – | > 100 µM (inactive) | – | – | – | – | –
O=C1OC(c2ccc(O)c(F)c2)(c2ccc(O)c(F)c2)c2cccc3cccc1c23 | > 25 µM (inactive) | 2.79 µM (inactive) | – | – | 14.8 µM (inactive) | – | – | 5.35 µM (inactive) | > 25 µM (inactive) | 17.2 µM (inactive) | > 25 µM (inactive) | > 25 µM (inactive) | – | 24.7 µM (inactive) | 5.9 µM (inactive) | > 25 µM (inactive) | > 25 µM (inactive) | 15.6 µM (inactive) | 8.04 µM (inactive) | –
CC(=C/c1ccccc1)/C=C1/NC(=S)N(/C=C2\C(=O)Oc3ccccc3C2=O)C1=O | 46 µM (inactive) | – | – | – | 39.6 µM (inactive) | – | – | 38.1 µM (inactive) | 52.4 µM (inactive) | 26.6 µM (inactive) | 96.6 µM (inactive) | – | – | 42.2 µM (inactive) | 38.3 µM (inactive) | 45.8 µM (inactive) | 45.9 µM (inactive) | 96.6 µM (inactive) | 38.1 µM (inactive) | 1.76 µM (inactive)
COc1cc2c(cc1Oc1ccc(OC)c3c1CC1c4c(cc(OC)c(OC)c4-3)CCN1C)CC1c3c(cc(OC)c(OC)c3-2)CCN1C (centres undefined) | – | 2.1 µM (inactive) | 2.23 µM (inactive) | 1.02 µM (active) | 1.39 µM (inactive) | 0.957 µM (active) | – | 1.25 µM (inactive) | 5.3 µM (inactive) | 0.221 µM (active) | 1.72 µM (inactive) | 17.8 µM (inactive) | 1.74 µM (inactive) | 4.51 µM (inactive) | 4.95 µM (inactive) | – | – | – | – | –

— ChEMBL document CHEMBL1201862, “PubChem BioAssay data set” (2004)
